Results as given in patent US12617771B2, “Diphenylpyrazole compound, and preparation method therefor and application thereof” (NORTHWEST A&F UNIVERSITY, priority 2021, dated 2026).
Structures can show the parent of a compound that is named as a salt.

Tests used:
[1] = test system: resistant strains of Plutella xylostella; assay: Insecticidal synergistic activity with chlorantraniliprole, leaf dip, resistant strains (Yunnan); assay type: in vivo; settings: for Resistance ratio to chlorantraniliprole: chlorantraniliprole alone or with 200 mg/L synergist, 48 hours; for LC50 of chlorantraniliprole solution: in vivo
Protocol: (§1) Experiment: 96% chlorantraniliprole (Chl) original drug was prepared into mother liquor with a concentration of 50000 mg/L. During the test, 6 treatment solutions with concentrations of 500, 250, 125, 62.5, 31.25 and 15.63 mg/L were prepared. 200 mg/L of the compound PXG22 of the present invention was added to each treatment solution, 200 mg/L of diethyl maleate (DEM) was used as the control synergist, and water was used as another control. The Plutella xylostella (Linnaeus) larvae was collected from a vegetable field in Yunnan Province. Healthy 3rd instar larvae of the same age were selected for indoor biological activity assay.
(§2) Clean wild cabbage leaves were cut into discs with a diameter of 6.5 cm (avoiding main veins). The leaves were soaked in the pesticide solution for 10 seconds, then taken out, dried at 25° C., and placed in a petri dish with a diameter of 6.5 cm. 10 larvae of the resistant strains of Plutella xylostella at the early stage of 3rd instar were placed in each petri dish, which was covered with double-layer absorbent roll paper, and covered by the upper cover of the petri dish. It was placed face up in an incubator at a temperature of 25±1° C., a relative humidity of 65%-70%, and a light ratio (L:D) of 16: 8 h. Each treatment was replicated 4 times with 10 larvae per replicate. […] The test process is strictly in accordance with the standard: NY/T 1154.7-2006.
(§3) Experimental data analysis was carried out using practical statistical analysis and its computer processing platform (DPS) (TANG Qiyi et al., 1997). The toxicity regression equation of each agent was established, LC50 value and 95% confidence limit were calculated.

[2] = test system: ultra-high resistant strains of Plutella xylostella (Huizhou insect source); assay: Insecticidal synergistic activity with chlorantraniliprole, ultra-high resistant strains (Huizhou insect source); assay type: in vivo; settings: for Resistance ratio to chlorantraniliprole: chlorantraniliprole alone or with 200 mg/L synergist, ultra-high resistant strains (Huizhou); for LC50 of chlorantraniliprole solution: in vivo
Protocol: as §1, §2, §3
Experiment: The method was the same as in Experimental Example 4. The tested Plutella xylostella was ultra-high resistance strains to chlorantraniliprole (Huizhou insect source). The compound PXG22 of the present invention was added at a concentration of 200 mg/L. The control synergist diethyl maleate (DEM) was added at a concentration of 200 mg/L.

[3] = test system: high resistant strains II of Plutella xylostella (Lianzhou insect source); assay: Insecticidal synergistic activity with chlorantraniliprole, high resistant strains II (Lianzhou insect source); assay type: in vivo; settings: for Resistance ratio to chlorantraniliprole: high resistant strains II (Lianzhou)
Protocol: as §1, §2, §3
(§4) Experiment: The method was the same as in Experimental example 4, and the tested Plutella xylostella was the high resistant strains II against chlorantraniliprole (Lianzhou source). The added concentrations of the compound PXG22 of the present invention were 200 mg/L, 100 mg/L, 50 mg/L and 25 mg/L, and the added concentration of diethyl maleate (DEM) of the control synergist was maintained at 200 mg/L.

[4] = test system: high resistant strains I of Plutella xylostella (Lianzhou insect source); assay: Insecticidal synergistic activity with chlorantraniliprole, high resistant strains I (Lianzhou insect source); assay type: in vivo; settings: for Resistance ratio to chlorantraniliprole: high resistant strains I (Lianzhou)
Protocol: as §1, §2, §3
as §4, with “I” for “II”, “100” for “100 mg/L, 50”, “50” for “25”

[5] = test system: resistant strains of Plutella xylostella; assay: Insecticidal synergistic activity with indoxacarb, leaf dip, resistant strains (Huizhou); assay type: in vivo; settings: for LC50 of indoxacarb: in vivo; for Resistance ratio to indoxacarb: indoxacarb alone or with 200 mg/L synergist, 48 hours
Protocol: as §1, with “Experiment: 95% indoxacarb (Ind)” for “Experiment: 96% chlorantraniliprole (Chl)”, “the compounds PXG1, PXG2 and” for “the compound”, “invention were” for “invention was”, “in Huizhou city, Guangdong” for “in Yunnan”
as §2, §3

PxGSTσ2 = PxGSTσ2 (Plutella xylostella, UniProt Q6F443); assay: Inhibition of PxGSTσ2 recombinant protein; assay type: biochemical; settings: read-out: 100 μM Inhibition rate %
Sequence of PxGSTσ2 (Q6F443 entry or part of it): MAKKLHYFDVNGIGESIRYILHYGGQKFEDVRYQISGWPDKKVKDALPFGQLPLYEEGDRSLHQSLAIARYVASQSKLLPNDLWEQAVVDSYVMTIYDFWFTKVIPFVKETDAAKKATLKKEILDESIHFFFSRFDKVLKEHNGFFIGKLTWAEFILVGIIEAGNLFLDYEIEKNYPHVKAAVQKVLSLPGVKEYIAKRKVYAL
Method in brief: (§5)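 Recombinant Plutella xylostella GSTs (1 μg) preincubated with compound in 100 mM PBS pH 7.2, 10 min, 30 °C; 1 mM CDNB and 1 mM GSH in PBS then added. A340 read every 1 min for 5 min; inhibition from A340 change vs control, IC50 by curve fit, triplicate.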

PxGSTε3 = PxGSTε3 (Plutella xylostella, UniProt O77409); assay: Inhibition of PxGSTε3 recombinant protein; assay type: biochemical; settings: read-out: 100 μM Inhibition rate %
Sequence of PxGSTε3 (O77409 entry or part of it): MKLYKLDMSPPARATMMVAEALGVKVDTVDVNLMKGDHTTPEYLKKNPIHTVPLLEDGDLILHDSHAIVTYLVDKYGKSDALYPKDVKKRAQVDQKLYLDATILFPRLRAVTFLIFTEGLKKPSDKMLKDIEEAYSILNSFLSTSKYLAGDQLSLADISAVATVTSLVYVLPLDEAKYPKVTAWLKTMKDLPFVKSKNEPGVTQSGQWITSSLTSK
Method in brief: as §5

PxGSTδ1 = PxGSTδ1 (Plutella xylostella, UniProt D7URW9); assay: Inhibition of PxGSTδ1 recombinant protein; assay type: biochemical; settings: read-out: 100 μM Inhibition rate %
Sequence of PxGSTδ1 (D7URW9 entry or part of it): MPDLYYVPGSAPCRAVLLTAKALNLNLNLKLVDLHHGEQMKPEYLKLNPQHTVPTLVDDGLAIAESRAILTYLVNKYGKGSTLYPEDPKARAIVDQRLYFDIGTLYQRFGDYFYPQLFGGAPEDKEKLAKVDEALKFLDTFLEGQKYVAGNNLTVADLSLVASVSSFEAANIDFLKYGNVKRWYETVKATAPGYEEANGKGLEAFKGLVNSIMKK
Method in brief: as §5

PxGSTσ1 = PxGSTσ1 (Plutella xylostella, UniProt Q6F436); assay: Inhibition of PxGSTσ1 recombinant protein; assay type: biochemical; settings: read-out: 100 μM Inhibition rate %
Sequence of PxGSTσ1 (Q6F436 entry or part of it): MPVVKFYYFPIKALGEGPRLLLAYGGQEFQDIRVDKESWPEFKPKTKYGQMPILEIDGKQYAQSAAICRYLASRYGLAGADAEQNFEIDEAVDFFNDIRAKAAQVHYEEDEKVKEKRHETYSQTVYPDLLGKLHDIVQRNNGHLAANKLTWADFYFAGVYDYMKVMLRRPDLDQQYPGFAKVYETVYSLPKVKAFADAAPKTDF
Method in brief: as §5

[6] = test system: Spodoptera frugiperda GSTs; assay: Inhibition of total GSTs enzyme of Spodoptera frugiperda (CDNB method); assay type: biochemical; settings: 100 μM
Method in brief: (§6)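 Total GSTs were taken from the 14,000 g supernatant of larval/nymph homogenate in 100 mM sodium phosphate with 1 mM EDTA, pH 7.2. Enzyme (5 μg) was preincubated with compound in PBS pH 7.2 containing 1 mM GSH for 10 min at 30 °C, then started with buffer containing 1 mM CDNB. IC50 was derived from inhibition of the 5-min ΔA340, done in triplicate.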

Spodoptera litura GSTs = assay: Inhibition of total GSTs enzyme of Spodoptera litura (CDNB method); assay type: biochemical
Method in brief: as §6

Nilaparvata lugens GSTs = assay: Inhibition of total GSTs enzyme of Nilaparvata lugens (CDNB method); assay type: biochemical; settings: 100 μM
Method in brief: as §6

Carposina sasakii GSTs = assay: Inhibition of total GSTs enzyme of Carposina sasakii (CDNB method); assay type: biochemical
Method in brief: as §6

Mythimna separata GSTs = assay: Inhibition of total GSTs enzyme of Mythimna separata (CDNB method); assay type: biochemical; settings: 100 μM
Method in brief: as §6

Pyrausta nubilalis GSTs = assay: Inhibition of total GSTs enzyme of Pyrausta nubilalis (CDNB method); assay type: biochemical
Method in brief: as §6

[7] = target: Helicoverpa armigera GSTs; assay: Inhibition of total GSTs enzyme of Helicoverpa armigera (CDNB method); assay type: biochemical
Method in brief: as §6

Plutella xylostella GSTs = assay: Inhibition of total GSTs enzyme of Plutella xylostella (CDNB method); assay type: biochemical
Method in brief: as §6

Chilo suppressalis GSTs = assay: Inhibition of total GSTs enzyme of Chilo suppressalis (CDNB method); assay type: biochemical
Method in brief: as §6

[8] = Plutella xylostella, read-out: LC50 of chlorantraniliprole solution
[9] = chlorantraniliprole alone or with 200 mg/L synergist

Row | inhibition at 100 µM (PxGSTσ2) [%] | inhibition at 100 µM (PxGSTε3) [%] | inhibition at 100 µM (PxGSTδ1) [%] | inhibition at 100 µM (PxGSTσ1) [%] | SMILES | Resistance ratio to chlorantraniliprole [1] | Resistance ratio to chlorantraniliprole [2] | Resistance ratio to chlorantraniliprole [3, 9] | Resistance ratio to chlorantraniliprole [4, 9] | LC50 of chlorantraniliprole solution [1] [µg/mL] | LC50 of chlorantraniliprole solution [2] [µg/mL] | LC50 of indoxacarb [5] [µg/mL] | Resistance ratio to indoxacarb [5] | further results
1 | – | – | – | – | CNC(=O)c1cc(Cl)cc(C)c1NC(=O)c1cc(Br)nn1-c1ncccc1Cl [Chl, Chlorantraniliprole, reference compound] | 479 | 2188.61 | 631.26 | 583.74 | – | – | – | – | LC50 ([1]; Plutella xylostella, foliar, 48 h, read-out: LC50 of chlorantraniliprole solution): 110 µg/mL; LC50 [2, 8]: 503 µg/mL; LC50 [3, 8]: 145 µg/mL; LC50 [4, 8]: 134 µg/mL
2 | – | – | – | – | CCOC(=O)/C=C\C(=O)OCC [DEM, diethyl maleate, reference compound] | 217.48 | 1925.26 | 469.52 | 232 | 50.02 | 442.81 | 54.11 | 104.06 | LC50 of chlorantraniliprole solution ([3]; in vivo): 107.99 µg/mL; LC50 of chlorantraniliprole solution ([4]; in vivo): 53.36 µg/mL
3 | 76.7 | 65.8 | 78.8 | 45.7 | O=C(NNC(=O)c1cc(-c2ccccc2)nn1-c1ccccc1)c1cc(=O)[nH]c2ccccc12 [PXG22, N′-(1,3-diphenyl-1H-pyrazol-5-yl-carbonyl)-2-oxo-1,2-dihydroquinoline-4-yl-carbohydrazide] | 61.04 | 645.43 | 243.13 | 175.82 | 14.04 | 148.45 | 51.21 | 98.48 | Resistance ratio to chlorantraniliprole ([3]; 25 mg/L PXG22 added): 341.48; Resistance ratio to chlorantraniliprole ([3]; 50 mg/L PXG22 added): 312.52; Resistance ratio to chlorantraniliprole ([3]; 100 mg/L PXG22 added): 195.04; Resistance ratio to chlorantraniliprole ([4]; 50 mg/L PXG22 added): 216.91; Resistance ratio to chlorantraniliprole ([4]; 100 mg/L PXG22 added): 92
4 | 58.1 | 17.6 | 68.9 | 25.5 | O=C(NNC(=O)c1cc(-c2ccccc2)nn1-c1ccccc1)c1cc[nH]c(=O)c1 [PXG1, N′-(1,3-diphenyl-1H-pyrazol-5-yl-carbonyl)-2-oxo-1,2-dihydropyridinyl-4-carbohydrazide] | – | – | – | – | – | – | 59.13 | 113.71 | 100 μM Inhibition rate % [6]: 58.40%; IC50 (Spodoptera litura GSTs): 17.7 µM; 100 μM Inhibition rate % (Spodoptera litura GSTs; 100 μM): 80.06%; 100 μM Inhibition rate % (Nilaparvata lugens GSTs): 100.60%; IC50 (Carposina sasakii GSTs): 52.6 µM; 100 μM Inhibition rate % (Carposina sasakii GSTs; 100 μM): 71.91%; 100 μM Inhibition rate % (Mythimna separata GSTs): 95.19%; IC50 (Pyrausta nubilalis GSTs): 12.1 µM; 100 μM Inhibition rate % (Pyrausta nubilalis GSTs; 100 μM): 87.80%; IC50 [7]: 52.8 µM; 100 μM Inhibition rate % ([7]; 100 μM): 77.22%; IC50 (Plutella xylostella GSTs): 27.6 µM; 100 μM Inhibition rate % (Plutella xylostella GSTs; 100 μM): 70.90%; IC50 (Chilo suppressalis GSTs): 8.24 µM; 100 μM Inhibition rate % (Chilo suppressalis GSTs; 100 μM): 92.32%
